Where two headings read alike, the source gives them in different places.
How the values were obtained:
CI-AMPARs = target: T1, CI-AMPARs (Rattus norvegicus, UniProt P19491, Q607R); experiment: Whole-cell patch-clamp of kainate-induced currents in isolated hippocampal CA1 pyramidal neurons; type: cell-based, Wistar rat; details: for % block: representative recording; for inhibition at 30 µM: 30 µM phenytoin, n = 7; for inhibition at 100 µM: 100 µM phenytoin, read-out: % inhibition; for inhibition at 50 µM: n = 6
T1 construct: activity against native calcium-permeable AMPA receptors (CP-AMPARs) and calcium-impermeable AMPA receptors (CI-AMPARs); endogenous in cells; host or cells: acutely isolated pyramidal neurons from the CA1 area of Wistar rat hippocampal slices
Procedure: All experimental procedures were approved by the Animal Care and Use Committee of the I.M. Sechenov Institute of Evolutionary Physiology and Biochemistry of the Russian Academy of Sciences. Wistar rats (13–19 days old) were anesthetized with sevoflurane and then decapitated. Maximum effort was made to minimize the number of animals used. Brains were removed quickly and cooled to 2–4°C in an ice bath. […] The antagonism of CI-AMPARs was studied on pyramidal neurons from the CA1 area of the hippocampus.
Series resistance of about 20 MΩ was compensated by 70–80% and monitored during experiments. Currents were recorded using an EPC-8 amplifier (HEKA Electronics, Lambrecht, Germany), filtered at 5 kHz, sampled, and stored on a personal computer. Drugs were applied using the RSC-200 perfusion system (BioLogic Science Instruments, Claix, France) under computer control. The solution exchange time in the whole-cell mode was 50–60 ms. […] The pipette solution contained (in mM) CsF 100, CsCl 40, NaCl 5, CaCl2 0.5, EGTA 5, and HEPES 10 (pH was adjusted to 7.2 with CsOH). Experiments were performed at room temperature (22–24°C). […] Lamotrigine, topiramate, levetiracetam, felbamate, carbamazepine, tiagabin, vigabatrin, zonisamide, and gabapentin were purchased from Tocris Bioscience (Bristol, United Kingdom). Perampanel was from MedChemExpress (Stockholm, Sweden). Kinetics of transient processes of more than 20-ms duration was approximated by exponential functions. Experiments were performed at −80 mV holding voltage. All experimental data are presented as mean ± SD estimated from at least four experiments. Significance of the effects was tested with paired t test. Differences were considered significant at p < 0.05. 3D structures of compounds were calculated by the ZMM software (zmmsoft.ca).

[1] = Solubility in the extracellular solution; type: physicochemical; details: concentrations above 500 µM could not be tested
Procedure: The whole-cell patch-clamp technique was used for recording of membrane currents generated in response to applications of kainate. Series resistance of about 20 MΩ was compensated by 70–80% and monitored during experiments. Currents were recorded using an EPC-8 amplifier (HEKA Electronics, Lambrecht, Germany), filtered at 5 kHz, sampled, and stored on a personal computer. Drugs were applied using the RSC-200 perfusion system (BioLogic Science Instruments, Claix, France) under computer control. The solution exchange time in the whole-cell mode was 50–60 ms. The extracellular solution contained (in mM) NaCl 143, KCl 5, MgCl2 2.0, CaCl2 2.5, D-glucose 18, and HEPES 10 (pH was adjusted to 7.3 with HCl). The pipette solution contained (in mM) CsF 100, CsCl 40, NaCl 5, CaCl2 0.5, EGTA 5, and HEPES 10 (pH was adjusted to 7.2 with CsOH). Experiments were performed at room temperature (22–24°C). […] Lamotrigine, topiramate, levetiracetam, felbamate, carbamazepine, tiagabin, vigabatrin, zonisamide, and gabapentin were purchased from Tocris Bioscience (Bristol, United Kingdom). Perampanel was from MedChemExpress (Stockholm, Sweden). Kinetics of transient processes of more than 20-ms duration was approximated by exponential functions. Experiments were performed at −80 mV holding voltage. […] 3D structures of compounds were calculated by the ZMM software (zmmsoft.ca).

[2] = target: voltage-gated sodium channels; design: method as in Kuo and Bean, 1994; Lenkowski et al., 2007; details: ref Kuo and Bean, 1994; Lenkowski et al., 2007; read-out: Affinity to inactivated states of sodium channels; cited from earlier work
[3] = double-pulse protocol, 30-s pause

T1 sequence (P19491 22-883 Q607R): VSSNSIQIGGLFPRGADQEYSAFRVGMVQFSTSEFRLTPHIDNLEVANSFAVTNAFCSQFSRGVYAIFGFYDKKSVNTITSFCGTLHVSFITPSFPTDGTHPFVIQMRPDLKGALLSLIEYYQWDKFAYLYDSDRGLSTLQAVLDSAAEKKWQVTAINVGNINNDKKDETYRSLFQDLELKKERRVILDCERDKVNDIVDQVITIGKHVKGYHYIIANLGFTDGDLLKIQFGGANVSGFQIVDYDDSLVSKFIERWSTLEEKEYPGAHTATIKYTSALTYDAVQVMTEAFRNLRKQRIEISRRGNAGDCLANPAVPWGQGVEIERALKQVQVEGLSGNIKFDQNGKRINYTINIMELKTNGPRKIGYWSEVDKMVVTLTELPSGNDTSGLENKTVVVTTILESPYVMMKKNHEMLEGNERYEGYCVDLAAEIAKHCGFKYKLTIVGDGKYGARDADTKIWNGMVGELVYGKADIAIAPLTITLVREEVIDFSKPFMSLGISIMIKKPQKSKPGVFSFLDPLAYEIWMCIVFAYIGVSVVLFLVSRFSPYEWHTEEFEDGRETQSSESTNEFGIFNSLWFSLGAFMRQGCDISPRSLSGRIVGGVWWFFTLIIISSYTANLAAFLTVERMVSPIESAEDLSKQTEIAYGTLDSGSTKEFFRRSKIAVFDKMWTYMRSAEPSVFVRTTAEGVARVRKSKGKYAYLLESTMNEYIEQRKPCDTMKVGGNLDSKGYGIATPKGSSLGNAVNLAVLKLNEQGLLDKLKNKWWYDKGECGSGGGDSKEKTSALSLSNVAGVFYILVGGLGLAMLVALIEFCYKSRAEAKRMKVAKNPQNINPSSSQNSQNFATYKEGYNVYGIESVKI

O=C1NC(=O)C(c2ccccc2)(c2ccccc2)N1 [Phenytoin]
% block (CI-AMPARs; 10 μM phenytoin, Figure 1A): 28% | inhibition at 30 µM (CI-AMPARs; 50 µM kainate): 55 ± 3% | inhibition at 30 µM (CI-AMPARs; 500 µM kainate): 40 ± 7% | % block (CI-AMPARs; 30 μM phenytoin, Figure 1A): 52% | Washout kinetics τ (CI-AMPARs; 50 µM phenytoin): 1,100 ± 200 ms | Activity drop in the presence of cyclothiazide (CI-AMPARs; 100 µM cyclothiazide, 50 µM kainate): Yes | inhibition at 100 µM (CI-AMPARs; 50 µM kainate, absence of cyclothiazide): 74 ± 4% | inhibition at 100 µM (CI-AMPARs; 50 µM kainate, presence of 100 µM cyclothiazide): 21 ± 7% | % block (CI-AMPARs; 100 μM phenytoin, Figure 1A): 75% | inhibition at 300 µM (CI-AMPARs; 300 µM compound, read-out: percentage of inhibition at 300-µM concentration): ≥ 80% | τ of the testing response to kainate in the trapping protocol (CI-AMPARs; 300 µM phenytoin, 500 µM kainate, n = 4): 81 ± 17 ms | inhibition at 300 µM (CI-AMPARs; 300 µM phenytoin, coapplication with agonist, n = 5, read-out: % inhibition of open AMPA receptor channels): 87 ± 5% | inhibition at 300 µM (CI-AMPARs; 300 µM phenytoin, preapplication without agonist, n = 5, read-out: % inhibition of closed AMPA receptor channels): 37 ± 7% | % block (CI-AMPARs; 300 μM phenytoin, Figure 1A): 87% | inhibition of kainate-induced currents (CI-AMPARs; 500 µM phenytoin, highest concentration tested): almost complete inhibition | Activity drop at high (500 µM) kainate concentration (CI-AMPARs; 50 vs 500 µM kainate): Yes | decrease in the % of inhibition with the increase in agonist concentration (CI-AMPARs; 50 vs 500 µM kainate): 10–15% | % block (CI-AMPARs; Phenytoin, 30 μM, Ka 50 μM, Figure 3A): 57% | % block (CI-AMPARs; Phenytoin, 30 μM, Ka 500 μM, Figure 3A): 44% | % block (CI-AMPARs; Phenytoin, 100 μM, Kainate, 50 μM + cyclothiazide, 100 μM, Figure 5C): 19% | % block (CI-AMPARs; Phenytoin, 100 μM, Kainate, 50 μM, Figure 5B): 74% | Difference in the % of inhibition in coapplication and preapplication protocols (CI-AMPARs; coapplication with kainate vs preapplication without kainate): Yes | More active against CI-AMPARs (CI-AMPARs; comparison of CI-AMPARs and CP-AMPARs): Yes | Trap in kainate 100 µM (CI-AMPARs; [3]): Yes | Trap in kainate 500 µM (CI-AMPARs; [3]): questionable | Trap in kainate 100 µM (CI-AMPARs; double-pulse protocol, 30-s pause, listed as phenytoin): pronounced trapping | Hill coefficient (CI-AMPARs; inhibition of CI-AMPARs, Hill equation): 0.9 ± 0.2 | inhibition at 50 µM (CI-AMPARs; pH 7.4, 50 µM phenytoin, pH 7.4): 60 ± 3% | pH-dependence (CI-AMPARs; pH 7.4 vs 9.0): Yes | inhibition at 50 µM (CI-AMPARs; pH 9, 50 µM phenytoin, pH 9.0): 28 ± 8% | % block (CI-AMPARs; phenytoin 50 μM, pH 7.4, Kainate, 100 μM, Figure 10A): 62% | % block (CI-AMPARs; phenytoin 50 μM, pH 9.0, Kainate, 100 μM, Figure 10A): 29% | solubility in the extracellular solution [1]: poor solubility | Kd [2]: 7 to 21 µM

Source: PMC8688955 (Frontiers in Pharmacology, 2021)
